From the supplement of paper PMC10307832

Legend:
Assay in all cases: relative viability (nuclei count vs DMSO), 5 days (fraction); higher = more cells survive
KIN001-266 + Lapatinib = compound: CCN1CCC(CC1)N2C=C(N=N2)CNC3=CC4=C(C(=CN=C4C(=C3)Cl)C#N)NC5=CC(=C(C=C5)F)Cl [KIN001-266] + CS(=O)(=O)CCNCc1ccc(-c2ccc3ncnc(Nc4ccc(OCc5cccc(F)c5)c(Cl)c4)c3c2)o1 [Lapatinib] (partner 2 µM)
In short: (§1)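 Medians of duplicate plates are given as relative viability. That measure is the nuclei count in treated wells divided by the count in vehicle wells. Counts were taken on 4× images of lung cancer cell lines in 1536-well plates, 5 days after pin-tool dosing the day after seeding with one drug alone or a fixed anchor-drug dose plus five library-drug doses (not always all listed) in √10 steps.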

KIN001-266 + Pemetrexed = compound: CCN1CCC(CC1)N2C=C(N=N2)CNC3=CC4=C(C(=CN=C4C(=C3)Cl)C#N)NC5=CC(=C(C=C5)F)Cl [KIN001-266] + Nc1nc2[nH]cc(CCc3ccc(C(=O)N[C@@H](CCC(=O)O)C(=O)O)cc3)c2c(=O)[nH]1 [Pemetrexed] (partner 0.2 µM)
In short: as §1

KIN001-266 + Dasatinib = compound: CCN1CCC(CC1)N2C=C(N=N2)CNC3=CC4=C(C(=CN=C4C(=C3)Cl)C#N)NC5=CC(=C(C=C5)F)Cl [KIN001-266] + Cc1nc(Nc2ncc(C(=O)Nc3c(C)cccc3Cl)s2)cc(N2CCN(CCO)CC2)n1 [Dasatinib] (partner 0.075 µM)
In short: as §1

KIN001-266 + Crizotinib = compound: CCN1CCC(CC1)N2C=C(N=N2)CNC3=CC4=C(C(=CN=C4C(=C3)Cl)C#N)NC5=CC(=C(C=C5)F)Cl [KIN001-266] + C[C@@H](Oc1cc(-c2cnn(C3CCNCC3)c2)cnc1N)c1c(Cl)ccc(F)c1Cl [Crizotinib] (partner 1 µM)
In short: as §1

| Cell Line | relative viability (KIN001-266 + Lapatinib; first compound 0.08 µM) | relative viability (KIN001-266 + Lapatinib; first compound 0.253 µM) | relative viability (KIN001-266 + Lapatinib; first compound 0.8 µM) | relative viability (KIN001-266 + Lapatinib; first compound 2.53 µM) | relative viability (KIN001-266 + Lapatinib; first compound 8 µM) | relative viability (KIN001-266 + Pemetrexed; first compound 0.08 µM) | relative viability (KIN001-266 + Pemetrexed; first compound 0.253 µM) | relative viability (KIN001-266 + Pemetrexed; first compound 0.8 µM) | relative viability (KIN001-266 + Pemetrexed; first compound 2.53 µM) | relative viability (KIN001-266 + Pemetrexed; first compound 8 µM) | relative viability (KIN001-266 + Dasatinib; first compound 0.08 µM) | relative viability (KIN001-266 + Dasatinib; first compound 0.253 µM) | relative viability (KIN001-266 + Dasatinib; first compound 0.8 µM) | relative viability (KIN001-266 + Dasatinib; first compound 2.53 µM) | relative viability (KIN001-266 + Dasatinib; first compound 8 µM) | relative viability (KIN001-266 + Crizotinib; first compound 0.08 µM) | relative viability (KIN001-266 + Crizotinib; first compound 0.253 µM) | relative viability (KIN001-266 + Crizotinib; first compound 0.8 µM) | relative viability (KIN001-266 + Crizotinib; first compound 2.53 µM) | relative viability (KIN001-266 + Crizotinib; first compound 8 µM) |
| --- | --- | --- | --- | --- | --- | --- | --- | --- | --- | --- | --- | --- | --- | --- | --- | --- | --- | --- | --- | --- |
| NCI-H1437 | 0.781 | 0.819 | 0.746 | 0.798 | 0.483 | 0.32 | 0.329 | 0.329 | 0.3 | 0.241 | 0.413 | 0.421 | 0.346 | 0.369 | 0.249 | 0.896 | 0.973 | 0.924 | 0.891 | 0.779 |
| NCI-H2085 | 0.829 | 0.853 | 0.716 | 0.755 | 0.617 | 0.896 | 0.884 | 0.738 | 0.908 | 0.798 | 0.221 | 0.234 | 0.241 | 0.239 | 0.244 | 0.867 | 1.05 | 0.875 | 0.794 | 0.615 |
| H3255 | 0.346 | 0.219 | 0.283 | 0.251 | 0.294 | 0.55 | 0.585 | 0.5 | 0.506 | 0.505 | 0.359 | 0.334 | 0.288 | 0.404 | 0.346 | 0.883 | 0.874 | 0.777 | 0.811 | 0.71 |
| NCI-H650 | 1.04 | 1.07 | 0.849 | 1.12 | 1.16 | 1.15 | 0.988 | 1.09 | 1.02 | 0.946 | 0.609 | 0.531 | 0.455 | 0.451 | 0.517 | 0.703 | 0.752 | 0.741 | 0.797 | 0.71 |
| LOU-NH91 | 0.854 | 0.751 | 0.711 | 0.689 | 0.745 | 0.369 | 0.392 | 0.385 | 0.378 | 0.425 | 0.553 | 0.531 | 0.39 | 0.516 | 0.435 | 0.75 | 0.694 | 0.576 | 0.683 | 0.647 |
| NCI-H1650 | 0.881 | 0.873 | 0.826 | 0.641 | 0.42 | 0.371 | 0.409 | 0.412 | 0.338 | 0.36 | 0.313 | 0.356 | 0.238 | 0.288 | 0.224 | 1.14 | 0.911 | 1.11 | 0.817 | 0.61 |
| NCI-H3122 | 0.893 | 0.945 | 1.03 | 0.964 | 0.907 | 0.206 | 0.2 | 0.198 | 0.197 | 0.214 | 0.78 | 0.752 | 0.856 | 0.891 | 0.763 | 0.329 | 0.239 | 0.267 | 0.256 | 0.221 |
| PC-3 [JPC-3] | 0.451 | 0.447 | 0.422 | 0.414 | 0.499 | 1.08 | 1.09 | 1.14 | 1.1 | 0.965 | 0.982 | 1.01 | 0.912 | 1.01 | 0.847 | 0.986 | 0.911 | 0.872 | 0.952 | 0.896 |
| NCI-H1651 | 0.912 | 0.931 | 0.85 | 0.962 | 0.84 | 0.6 | 0.535 | 0.531 | 0.514 | 0.58 | 0.43 | 0.421 | 0.388 | 0.472 | 0.411 | 0.935 | 0.872 | 0.876 | 0.853 | 0.823 |
| NCI-H2087 | 1.03 | 1.05 | 1.06 | 0.987 | 0.875 | 0.646 | 0.716 | 0.637 | 0.581 | 0.587 | 0.914 | 0.887 | 0.866 | 0.87 | 0.472 | 0.699 | 0.81 | 0.604 | 0.786 | 0.532 |
